Test results from patent publication US12600724B2, “Indole alkaloid and preparation method and use thereof” (NANJING UNIVERSITY OF CHINESE MEDICINE, priority 2022, dated 2026).

How the values were obtained:
[1] = test system: type-2 diabetes model db/db mice; test: Motor nerve conduction velocity, type-2 diabetes db/db mice; format: in vivo, BKS db/db mice; conditions: for Motor nerve conduction velocity: db/db mice, S26 46.8 mg/kg/day intragastric, Mean ± SD, n = 3
Protocol: Type-2 diabetes mice: male 18-week-old BKS db/db mice were purchased from Jiangsu Gempharmatech Biotechnology Co., Ltd. One week after adaptive feeding, the mice were divided into a control group (db/m mice), a model group (db/db mice) and a S26 administration group (46.8 mg/kg/day) respectively according to body weight and blood sugar, and administrated intragastrically for four weeks continuously. Before administration, 2 weeks and 4 weeks after administration, motor nerve conduction velocities (MNCV) of left and right sides of each group of mice were detected, and a mean value of the velocities of two sides was taken as a nerve conduction velocity of each mouse. Specific experimental method: (1) electrode placement: a stimulating electrode was placed on a nerve trunk, a recording electrode was placed on a muscle belly, and a reference electrode was placed on a muscle tendon; and a ground electrode was placed between the stimulating electrode and the recording electrode. (2) Calculation of motor nerve conduction velocity: distal and proximal ends of the nerve trunk were stimulated in a super-strong manner, a compound muscle action potential could be recorded twice on a muscle innervated by the nerve, different latent periods of the compound muscle action potentials were measured, and a distance between the distal and proximal ends was divided by a difference between the two latent periods, so as to obtain the nerve conduction velocity. Computational formula: nerve conduction velocity (m/s)=distance between two ends (cm)×10/difference between two latent periods (ms).

[2] = test system: DRG neurons of type-1 diabetes peripheral neuropathy model mice; test: Axon growth of DRG neuron cells taken after administration, type-1 mice; format: in vivo, C57BL/6J mice
Protocol: Type-1 diabetes mice: male 8-week-old C57BL/6J mice were purchased from Beijing Vital River Laboratory Animal Technology Co., Ltd. One week after adaptive feeding, STZ (150 mg/kg) was injected intraperitoneally, and one week later, tail vein blood collection was carried out for blood sugar detection, and the mice with random blood sugar greater than 16 mmol/L were selected. Six weeks after STZ injection, the mice were divided into a control group (non-diabetic mice), a model group (DPN mice) and a S26 administration group (46.8 mg/kg/day) respectively according to body weight and blood sugar, and administrated intragastrically for four weeks continuously. After administration, a fresh DRG neuron of a mouse was extracted to digest into a single-cell suspension and then inoculated into a culture plate for adherent culture overnight. A β-tubulin III (Sigma) protein of the DRG neuron cells was labeled by an immunofluorescence staining method. The protein was imaged by a fluorescence microscope (Leica), and a total axon length of a single DRG neuron cell was tracked by a Neuro J plug-in in Image J software.

[3] = test system: diabetic foot ulcer rat model (STZ-induced diabetic rat); test: Foot ulcer wound area of diabetic foot ulcer model rat; format: in vivo, Sprague Dawley rats; conditions: for Area of foot ulcer wound: DFU rats, S26 46.8 mg/kg/day intragastric, Mean ± SD, n = 6
Protocol: Diabetic foot ulcer (DFU) was the most common manifestation of diabetic foot, and was also a main cause of amputation of a diabetic patient. In this experiment, a certain area of wound was created on a foot back of the diabetic rat at one time to form a diabetic foot ulcer model, and then the compound S26 was administrated for treatment. The influence of the vinpocetine derivative S26 on the healing of the diabetic foot ulcer was evaluated by taking a photo of the wound and quantifying an area of the wound. […] Four weeks after STZ injection, an inhalation anesthesia machine was used to carry out isoflurane inhalation to induce anesthesia, and a complete round skin wound was created on a rear foot back of the diabetic rat through a disposable 5 mm skin biopsy punch and a Westcott scissor. After the establishment of the diabetic foot ulcer rat model, the rats were divided into a control group (non-diabetic rats), a model group (DFU rats) and a S26 administration group (46.8 mg/kg/day) respectively according to blood sugar and body weight, and administrated intragastrically for four weeks continuously. The foot ulcer wound of each rat was observed on day 0, day 3, day 7, day 14, day 21 and day 28 after administration, and photographed with a camera, and then the wound area was quantified by Image J software through scale conversion.

[4] = test system: bleomycin-induced pulmonary fibrosis mouse; test: Bleomycin-induced pulmonary fibrosis mouse, Micro-CT volume of normal lung tissue; format: in vivo, C57BL/6J mice; conditions: for Volume of normal lung tissue: bleomycin 5 mg/kg model, S26 46.8 mg/kg intragastric, Mean ± SD, n = 4
Description: In this experiment, the pulmonary fibrosis model was established by oral tracheal instilling of a bleomycin solution into the mouse, and then the compound S26 was administrated for treatment. A volume of a normal lung tissue of the mouse was quantified by carrying out CT photographing and three-dimensional reconstruction on a lung of the mouse to evaluate the influence of the vinpocetine derivative S26 on the degree of the bleomycin-induced pulmonary fibrosis of the mouse. Male 8-week-old C57BL/6J mice were purchased from Beijing Weitong Lihua Experimental Animal Technology Co., Ltd. One week after adaptive feeding, a lung development condition of the mouse was examined by micro-CT. The mice were divided into a blank control group (normal mice), a model group and a S26 administration group (46.8 mg/kg) according to a volume of a normal lung tissue. Subsequently, an inhalation anesthesia machine was used to carry out isoflurane inhalation to induce anesthesia. The mice in the model group and the administration group were given 5 mg/kg bleomycin solution through oral tracheal instilling to establish the pulmonary fibrosis model, while the mice in the control group were given the same volume of bleomycin solvent. The mice were administrated on day 8 after the establishment of the model, and were intragastrically administrated for 20 days continuously. Micro-CT imaging was carried out before the establishment of the model and on day 8, day 18 and day 28 after the establishment of the model to observe pulmonary fibrosis of the mice.

Question: For `CC[C@@]12C=C(C(=O)NCC(=O)OCCOCCOCCOCCO)n3c4c(c5ccccc53)CCN(CCC1)[C@H]42` [Compound S26], which “Motor nerve conduction velocity” value ([1]; week 0 of administration) is on record?
Answer: 20.45 ± 3.94^ m/s

Question: What about the “Motor nerve conduction velocity” value ([1]; week 2 of administration) of the same molecule?
Answer: 29.70 ± 4.27 m/s

Question: And the “Motor nerve conduction velocity” value ([1]; week 4 of administration)?
Answer: 36.57 ± 3.34 m/s

Question: And the “Motor nerve conduction velocity and anesthesia symptom (in words)” value ([1]; type-2 diabetes mouse, Tables 5 to 7)?
Answer: obviously improve

Question: And the Total axon length ([2]; Type-1 mice, DRG neurons extracted after four weeks of S26 46.8 mg/kg/day intragastric, Mean (SD in the cell below), n = 6)?
Answer: 6374.12 pixel

Question: And the “Axon growth conditions of DRG neurons (in words, FIG. 1)” value ([2]; type-1 diabetes peripheral neuropathy model mice)?
Answer: obviously improve

Question: And the “Area of foot ulcer wound” value ([3]; day 0 of administration)?
Answer: 25.02 ± 2.85 mm^2

Question: What about the “Area of foot ulcer wound” value ([3]; day 3 of administration) of the same molecule?
Answer: 22.57 ± 2.76 mm^2

Question: What about the “Area of foot ulcer wound” value ([3]; day 7 of administration) of the same molecule?
Answer: 11.83 ± 3.73^# mm^2

Question: What about the “Area of foot ulcer wound” value ([3]; day 14 of administration) of the same molecule?
Answer: 10.50 ± 2.01^## mm^2

Question: What about the “Area of foot ulcer wound” value ([3]; day 21 of administration) of the same molecule?
Answer: 8.78 ± 1.35^## mm^2

Question: What about the “Area of foot ulcer wound” value ([3]; day 28 of administration) of the same molecule?
Answer: 6.02 ± 1.67^# mm^2

Question: What about the “Area of the foot ulcer wound (in words, FIG. 2)” value ([3]; diabetic foot rat) of the same molecule?
Answer: obviously reduce

Question: And the “Volume of normal lung tissue” value ([4]; day 0 of administration (day 8 after model))?
Answer: 328.98 ± 34.15^ mm^3

Question: What about the “Volume of normal lung tissue” value ([4]; day 10 of administration (day 18 after model)) of the same molecule?
Answer: 486.71 ± 48.61^# mm^3

Question: What about the “Volume of normal lung tissue” value ([4]; day 20 of administration (day 28 after model)) of the same molecule?
Answer: 536.70 ± 58.44^## mm^3

Question: What about the “Volume of the normal lung tissue (in words, FIG. 3)” value ([4]; pulmonary fibrosis model mouse) of the same molecule?
Answer: obviously increase
